pIC50: −log10 of the molar value.

This experiment addresses T1, G9a (Homo sapiens, UniProt Q96KQ7).
T1 sequence (Q96KQ7 1-1210): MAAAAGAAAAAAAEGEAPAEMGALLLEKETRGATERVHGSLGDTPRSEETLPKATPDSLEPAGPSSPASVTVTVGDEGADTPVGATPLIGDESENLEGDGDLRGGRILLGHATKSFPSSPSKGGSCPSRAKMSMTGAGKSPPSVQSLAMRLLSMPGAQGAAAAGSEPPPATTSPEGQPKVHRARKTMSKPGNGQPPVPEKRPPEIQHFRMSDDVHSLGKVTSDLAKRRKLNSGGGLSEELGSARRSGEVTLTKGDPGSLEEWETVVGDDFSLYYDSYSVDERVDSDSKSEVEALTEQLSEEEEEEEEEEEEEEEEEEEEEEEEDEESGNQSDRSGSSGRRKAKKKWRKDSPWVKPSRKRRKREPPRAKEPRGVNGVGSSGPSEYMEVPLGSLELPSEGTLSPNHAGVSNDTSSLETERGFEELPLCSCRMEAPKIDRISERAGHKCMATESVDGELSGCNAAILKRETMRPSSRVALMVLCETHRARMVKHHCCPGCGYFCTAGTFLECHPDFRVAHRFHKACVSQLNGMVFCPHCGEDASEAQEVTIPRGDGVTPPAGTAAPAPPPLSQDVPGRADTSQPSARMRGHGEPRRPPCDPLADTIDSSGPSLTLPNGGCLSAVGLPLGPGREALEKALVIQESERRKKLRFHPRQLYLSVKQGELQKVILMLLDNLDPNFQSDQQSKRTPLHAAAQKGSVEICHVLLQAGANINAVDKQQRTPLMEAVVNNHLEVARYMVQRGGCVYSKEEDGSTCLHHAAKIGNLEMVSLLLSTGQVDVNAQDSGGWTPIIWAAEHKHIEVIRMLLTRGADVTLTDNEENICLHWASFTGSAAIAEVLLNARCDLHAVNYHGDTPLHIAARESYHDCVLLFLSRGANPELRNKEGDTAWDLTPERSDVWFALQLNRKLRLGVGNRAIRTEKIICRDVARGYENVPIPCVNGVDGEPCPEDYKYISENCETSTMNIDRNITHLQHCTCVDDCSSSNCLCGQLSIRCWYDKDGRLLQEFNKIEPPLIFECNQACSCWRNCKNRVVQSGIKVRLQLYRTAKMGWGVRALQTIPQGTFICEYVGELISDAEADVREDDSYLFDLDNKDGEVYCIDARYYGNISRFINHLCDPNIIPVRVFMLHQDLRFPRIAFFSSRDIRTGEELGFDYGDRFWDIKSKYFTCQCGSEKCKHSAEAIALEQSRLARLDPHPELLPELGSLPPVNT
As to the kind of experiment: G9a AlphaLISA enzymatic activity assay. The settings on record: negative log of IC50 in molar, 0.15 nM G9a, 15 uM S-adenosyl-methionine, 100 nM biotinylated histone 3 peptide (1-21). It is filed as biochemical. From the text:
The G9a AlphaLISA assay was used to detect the methyl modifications of a biotinylated histone H3 peptide by the compounds. These modifications are done by the histone methyl transferase activity of the G9a enzyme. The assay consists of reading a chemiluminescent signal at 615 nm; this signal is generated by a laser excitation at 680 nm that transfers a reactive singlet oxygen between the donor beads and acceptor beads. Donor beads are streptavidin conjugated and bind to the biotin on the peptide. Acceptor beads are conjugated with an antibody that recognizes the specific G9a methyl mark on the peptide. If there is a methyl mark on the peptide, the acceptor beads will bind to the peptide. Upon binding, the acceptor beads will be in close proximity (<200 nm) of the donor beads and when the donor beads are excited, the transfer of the oxygen can occur and a strong signal will be generated. If there is no methyl mark, the interaction between beads will not occur and signal will be at background levels.
For the assay, the following buffer was used to set up reactions: 50 mM Tris-HCl pH9, 50 mM NaCl, 0.01% Tween-20 and 1 mM DTT (added fresh prior to starting the reactions). […] The reaction is incubated at rt for 1 hour and subsequently quenched by the addition of the acceptor beads (anti-H3k9me2 AlphaLISA acceptor beads, PerkinElmer #AL117) at a final concentration of 20 ug/mL. The acceptor beads are incubated for 1 hour. After 1 hour, the donor beads are added at a final concentration of 20 ug/mL (Alpha Streptavidin donor beads, PerkinElmer #6760002). Donor beads are incubated for 0.5 hours. Both donor and acceptor beads are resuspended in AlphaLISA 5X Epigenetics Buffer 1 Kit (PerkinElmer #AL008) prior to addition to the reaction. All manipulations and incubations with the donor and acceptor beads are done in subdued light. Signal is detected in an EnVision plate reader in Alpha mode. See ACS Med Chem Lett. 2014; 5(2):205-9.
Percent inhibition was calculated for each compound dilution and the concentration that produced 50% inhibition was calculated. This value is presented as the pIC50, which is the negative log of the IC50 value in molar.

With `COc1cc2c(NC[C@@H]3CCOC3)c3c(nc2cc1OCCCN1CCCC1)CCC3` [Example 29, 7-methoxy-N-{[(3S)-oxolan-3-yl]methyl}-6-[3-(pyrrolidin-1-yl)propoxy]-1H,2H,3H-cyclopenta[b]quinolin-9-amine], the pIC50 was 8.22.

For `CCNc1c2c(nc3cc(OCCCN4CCCC4)c(OC(F)F)cc13)CCC2` [Example 30, 7-(difluoromethoxy)-N-ethyl-6-[3-(pyrrolidin-1-yl)propoxy]-1H,2H,3H-cyclopenta[b]quinolin-9-amine], the negative-log IC50 (pIC50) is 7.45. Molecule `CCCNc1c2c(nc3cc(OCCCN4CCCC4)c(OC(F)F)cc13)CCC2` [Example 31, 7-(difluoromethoxy)-N-propyl-6-[3-(pyrrolidin-1-yl)propoxy]-1H,2H,3H-cyclopenta[b]quinolin-9-amine] had a pIC50 of 6.96. Compared with the last molecule, the pIC50 is 0.49 log units lower. As for `COCCNc1c2c(nc3cc(OCCCN4CCCC4)c(OC(F)F)cc13)CCC2` [Example 32, 7-(difluoromethoxy)-N-(2-methoxyethyl)-6-[3-(pyrrolidin-1-yl)propoxy]-1H,2H,3H-cyclopenta[b]quinolin-9-amine], the figure is 6.97; as for `COCCCNc1c2c(nc3cc(OCCCN4CCCC4)c(OC(F)F)cc13)CCC2` [Example 33, 7-(difluoromethoxy)-N-(3-methoxypropyl)-6-[3-(pyrrolidin-1-yl)propoxy]-1H,2H,3H-cyclopenta[b]quinolin-9-amine], 6.84; as for `CNc1c2c(nc3cc(OCCCN4CCCC4)c(OC(F)F)cc13)CCC2` [Example 34, 7-(difluoromethoxy)-N-methyl-6-[3-(pyrrolidin-1-yl)propoxy]-1H,2H,3H-cyclopenta[b]quinolin-9-amine], 7.54.

Regarding `CC(C)Nc1c2c(nc3cc(OCCCN4CCCC4)c(OC(F)F)cc13)CCC2` [Example 35, 7-(difluoromethoxy)-N-(propan-2-yl)-6-[3-(pyrrolidin-1-yl)propoxy]-1H,2H,3H-cyclopenta[b]quinolin-9-amine], the pIC50 is 7.20. Under `CNc1c2c(nc3cc(OCCCN4CCCC4)c(OC)cc13)C1CCCC2C1` (stereo not drawn) [Example 36, 7-methoxy-N-methyl-6-[3-(pyrrolidin-1-yl)propoxy]-3-azatetracyclo[10.3.1.0^{2,11}.0^{4,9}]hexadeca-2,4,6,8,10-pentaen-10-amine] stands 7.71; under `COCCNc1c2c(nc3cc(OCCCN4CCCC4)c(OC)cc13)CCCCC2` [Example 37, 2-methoxy-N-(2-methoxyethyl)-3-[3-(pyrrolidin-1-yl)propoxy]-6H,7H,8H,9H,10H-cyclohepta[b]quinolin-11-amine], 6.97. As for `COC[C@H](C)Nc1c2c(nc3cc(OCCCN4CCCC4)c(OC)cc13)CCCCC2` [Example 38, 2-methoxy-N-[(2S)-1-methoxypropan-2-yl]-3-[3-(pyrrolidin-1-yl)propoxy]-6H,7H,8H,9H,10H-cyclohepta[b]quinolin-11-amine], the pIC50 was 6.67.

In turn, `COc1cc2c(NCCC(C)(C)O)c3c(nc2cc1OCCCN1CCCC1)CCCCC3` [Example 39, 4-({2-methoxy-3-[3-(pyrrolidin-1-yl)propoxy]-6H,7H,8H,9H,10H-cyclohepta[b]quinolin-11-yl}amino)-2-methylbutan-2-ol] gave a pIC50 of 7.24. This pIC50 is 0.57 log units higher than that of the molecule before. As for `COc1cc2c(NCC3CC3)c3c(nc2cc1OCC(O)CN1CCCC1)CCC3` (stereo not drawn) [Example 40, 1-({9-[(cyclopropylmethyl)amino]-7-methoxy-1H,2H,3H-cyclopenta[b]quinolin-6-yl}oxy)-3-(pyrrolidin-1-yl)propan-2-ol], the figure is 7.39; as for `CCOCCNc1c2c(nc3cc(COCCN4CCCC4)c(OC)cc13)CCC2` [Example 41, N-(2-ethoxyethyl)-7-methoxy-6-{[2-(pyrrolidin-1-yl)ethoxy]methyl}-1H,2H,3H-cyclopenta[b]quinolin-9-amine], 7.47; as for `FC(F)Oc1cc2c(NCC3CC3)c3c(nc2cc1OCCCN1CCCC1)CCC3` [Example 42, N-(cyclopropylmethyl)-7-(difluoromethoxy)-6-[3-(pyrrolidin-1-yl)propoxy]-1H,2H,3H-cyclopenta[b]quinolin-9-amine], 7.01. Under `COCCNc1c2c(nc3cc(OCCCN4CCCC4)c(OC)cc13)C1CCCC2C1` (stereo not drawn) [Example 43, 7-methoxy-N-(2-methoxyethyl)-6-[3-(pyrrolidin-1-yl)propoxy]-3-azatetracyclo[10.3.1.0^{2,11}.0^{4,9}]hexadeca-2,4,6,8,10-pentaen-10-amine] stands 7.40.

In turn, `COc1cc2c(NCC3CC3)c3c(nc2cc1OC[C@H](C)CN1CCCC1)CCC3` [Example 44, N-(cyclopropylmethyl)-7-methoxy-6-[(2R)-2-[(pyrrolidin-1-yl)methyl]propoxy]-1H,2H,3H-cyclopenta[b]quinolin-9-amine] showed a pIC50 of 6.78. For `COc1cc2c(NC(C)C)c3c(nc2cc1OCCOCCN(C)C)CCC3` [Example 45, 6-{2-[2-(dimethylamino)ethoxy]ethoxy}-7-methoxy-N-(propan-2-yl)-1H,2H,3H-cyclopenta[b]quinolin-9-amine], the pIC50 is 7.76. `CNc1c2c(nc3cc(OCCCNC(C)=O)c(OC)cc13)CCC2` [Example 46, N-(3-{[7-methoxy-9-(methylamino)-1H,2H,3H-cyclopenta[b]quinolin-6-yl]oxy}propyl)acetamide]: the pIC50 was 5.51. On to `CNc1c2c(nc3cc(OCCCN4C5CCC4CC5)c(OC)cc13)CCC2` [Example 47, 6-(3-{7-azabicyclo[2.2.1]heptan-7-yl}propoxy)-7-methoxy-N-methyl-1H,2H,3H-cyclopenta[b]quinolin-9-amine], for which the pIC50 is 5.87.

Take `CNc1c2c(nc3cc(OCCCN4CCCC4)c(OC(F)(F)F)cc13)CCC2` [Example 48, N-methyl-6-[3-(pyrrolidin-1-yl)propoxy]-7-(trifluoromethoxy)-1H,2H,3H-cyclopenta[b]quinolin-9-amine]: the pIC50 was 6.22. As for `CCNc1c2c(nc3cc(OCCCN4CCCC4)c(OC(F)(F)F)cc13)CCC2` [Example 49, N-ethyl-6-[3-(pyrrolidin-1-yl)propoxy]-7-(trifluoromethoxy)-1H,2H,3H-cyclopenta[b]quinolin-9-amine], the figure is 6.19; as for `COCCNc1c2c(nc3cc(OCCCN4CCCC4)c(OC(F)(F)F)cc13)CCC2` [Example 50, N-(2-methoxyethyl)-6-[3-(pyrrolidin-1-yl)propoxy]-7-(trifluoromethoxy)-1H,2H,3H-cyclopenta[b]quinolin-9-amine], 6.11. Under `CNc1c2c(nc3cc(OCCCN(C)CCF)c(OC)cc13)CCC2` [Example 55, 6-{3-[(2-fluoroethyl)(methyl)amino]propoxy}-7-methoxy-N-methyl-1H,2H,3H-cyclopenta[b]quinolin-9-amine] stands 6.09; under `CCNc1c2c(nc3cc(OCCCN(C)CCF)c(OC)cc13)CCC2` [Example 56, N-ethyl-6-{3-[(2-fluoroethyl)(methyl)amino]propoxy}-7-methoxy-1H,2H,3H-cyclopenta[b]quinolin-9-amine], 5.98.

These data come from patent US11584734B2, “Tricyclic compounds as histone methyltransferase inhibitors” (GLOBAL BLOOD THERAPEUTICS, INC., priority 2017, dated 2023).
